Data taken from publication PMC9271048, “Probing strigolactone perception mechanisms with rationally designed small-molecule agonists stimulating germination of root parasitic weeds” (Nature Communications, 2022).
Like-named read-outs stand apart in the source and are kept apart here.

Tests used:
ShHTL7 [1] = target: T1, ShHTL7 (Striga hermonthica, UniProt A0A0M3PNA2); assay: biochemical; type: binding
Experimental: We used a sensitive, high-throughput Surface plasmon resonance (SPR) method to examine the binding affinities of the 51 candidates to the recombinant ShHTL7 protein, which was immobilized on the CM5 sensor chip. rac-GR24 was used as a positive control.
The interactions of small molecules with recombinant ShHTL7 were evaluated using the Biacore T200 system (GE Healthcare, USA) at 25 °C[47]. The purified ShHTL7 protein was immobilized on a CM5 sensor chip using the standard amine coupling procedure. […] PBS-P (10 mM phosphate buffer, 2.7 mM KCl, 137 mM NaCl, 0.05% Surfactant P20) containing 0.5% DMSO was used as the running buffer. For the screening experiments, candidates with different structures at 50 μM in the running buffer were injected individually at a flow rate of 30 μL min^−1. For binding affinity studies, compounds with different concentrations in running buffer were used. During the experiments, both the contact and dissociation times were set as 1 min. Data analysis was performed using the Biacore Evaluation Software (T200 Version 2.0). The affinity values (KD) were obtained by the kinetics analysis or the steady-state affinity method.

ShHTL7 [2] = target: T1, ShHTL7; assay: Competitive inhibition of ShHTL7 with Yoshimulactone Green (YLG) as substrate; type: biochemical; settings: YLG used as the substrate, means ± SD, n = 3
Experimental: Based on the structural feature of the lead compound 2h, we selected three regions to perform further modification (Supplementary Fig. 6), to try to further improve bioactivity. Insertion of a carbonyl group between the bicyclo[2.2.1]hept-5-en-2-yl group and the piperazine ring was detrimental to binding affinity (Supplementary Fig. 6, region A). Removal of an oxygen atom in region B was found unfavorable to binding affinity as well. Therefore, we focused on modifying the benzene ring (region C) for 2h. A series of compounds with different groups at region C was synthesized (Supplementary Scheme 1). […] As SPR just measures the binding ability, another independent assay by using Yoshimulactone Green (YLG) as the fluorescent substrate was performed to determine the half-maximal inhibitory concentration (IC50) of these compounds against ShHTL7[22].
The excitation and emission wavelengths of YLG are 480 and 520 nm, respectively. We used a fluorescence spectrophotometer (CARY Eclipse) to detect the fluorescence intensity change of YLG during the enzymatic hydrolysis assay process. All the testing compounds and YLG were dissolved in DMSO and prepared as stock solutions just before use. […] The changes of fluorescence at 520 nm of each well were recorded every 1 min for 30 min. Using the reaction mixture without adding enzyme and tested compounds as the background control. After subtracting the background hydrolysis, a linear fluorescence increase in 8 min was used for further inspection. The IC50 values were determined via fitting relative inhibition percentages with the varying concentrations of compounds in Microsoft Excel.

ShHTL7 [3] = target: T1, ShHTL7; assay: Lineweaver-Burk plot analysis of ShHTL7 inhibition (YLG); type: biochemical; settings: ShHTL7-mediated hydrolysis of YLG; no significant change of Vmax
Experimental: 0.1 Å width; second, the number of data points of each bin was counted; third, the density of each bin is calculated using the number of D5′C-OG-DNE2-HG data points fall in the corresponding bin being divided by the total number of the distance-distance data points; last, the Z(A,D) (shown in Equation 1) was constructed by fitting the data with the two-dimensional Gaussian function using the non-linear surface fitting methods in Origin Lab.
In this equation, Z is the conformation probability density of D5′C-OG and DNE2-HG in the calculation system. µ is the mean of the normal distribution. σ is the standard deviation.
The PPC of each system was calculated using the bivariate integration of the corresponding CPDF over the interval 1.5–3.8 Å for D5′C-OG, and 1.6–3.5 Å for DNE2-HG with Equation 2 using Matlab software (The Math Works, Natick, MA).
The final PPC value of each system was the averaged data of every 200 ns in the MD simulation.
The structure figures were analyzed by PYMOL software8.
The structures of (S)-4a were constructed and optimized by Sybyl 6.9 (Tripos Inc., St. Louis, MO).
DFT calculations of (S)-4a were performed by Gaussian 09 program package at b3lyp/6-31g(d) level9.
The results were analyzed by GaussView 5.0.
Determination of the Inhibition Model
For Lineweaver-Burk plot analysis, the competitive inhibition of ShHTL7 by compounds 1, 2g, and 2h was performed by using YLG as the substrate at 25 °C. The excitation and emission […]
Supplementary Fig. 7. Lineweaver−Burk plots for the inhibition of ShHTL7 by compounds 1 (a), 2g (b), and 2h (c). Error bar indicates SD (n = 3 biologically independent experiments).
(§1) (1 picture or pasted object on this page, not shown here)
[1] Yao, R. et al. DWARF14 is a non-canonical hormone receptor for strigolactone. Nature 536, 469– […]
[2] de Saint Germain, A. et al. An histidine covalent receptor and butenolide complex mediates strigolactone perception.
[3] […]
A: We have evaluated inhibitory kinetics of the three representative compounds 1, 2g, and 2h on ShHTL7-mediated hydrolysis of YLG. […]

P. aegyptiaca seeds = assay: P. aegyptiaca seed germination assay; type: in vivo, Phelipanche aegyptiaca; settings: for germination of P. aegyptiaca seeds, source data average: 10 μM, Fig. 1d source data, average of 3; for P. aegyptiaca germination(%): Supplementary Table 1, compounds tested at 10 μM, means ± SD, n = 3
Experimental: P. aegyptiaca seeds were harvested from Xinjiang province, China in 2017. The seeds were surface sterilized using 1% NaClO solution for 2 min and then washed with distilled water six times. For seed germination assay, about 20 pieces of glass fiber-filter paper discs (15 mm diameter, Whatman GF/B) were placed separately on two layers of filter papers (9 cm diameter, Whatman) in a Petri dish. Five milliliters of distilled water was added to each Petri dish to wet the papers. Approximately 40–90 sterilized seeds were spread onto each glass fiber-filter paper disc. After the seeds were conditioned in the dark at 25 °C for 4 days[48], glass fiber-filter paper discs were blotted dry on filter papers (9 cm) and transferred to the wells of 24-well cell culture plates. The testing compounds were dissolved in acetone and diluted with H2O (VH2O/Vacetone = 999/1) just before use[49]. rac-GR24 and 1‰ acetone solution were used as positive and negative controls, respectively. One hundred microliters of the test solution was added to each well of the plates, and all treatments were performed in three biological repeats. The plates were sealed and incubated in the dark at 25 °C for a week. The experiments were performed at least three times. The germinated seeds were observed by using an electronic magnifier at ×20 magnification.

ShHTL7 [4] = target: T1, ShHTL7; assay: ShHTL7-hydrolysis reaction analysis (HPLC); type: biochemical; settings: authors' response to reviewer
Experimental: Compounds 4a, (R)- and (S)-4a, 4g-i, and rac-GR24 were dissolved in DMSO and prepared as stock solution ([…]) just before use. A 200 μL of the reaction solution consisting of PBS buffer (pH 7.3), 10 μM samples, and 10 μg recombinant ShHTL7 or its mutants was incubated at 30 °C for 30 min; with the reaction solution (200 μL) containing PBS buffer (pH 7.3) and 10 μM samples as the blank control[40],[52]. Subsequently, the reaction was terminated by adding 200 μL of methanol, and then the reaction mixture was shaken for 10 s and centrifuged at 5310 × g for 60 s. The supernatant was filtered and the remaining amount of samples was analyzed by HPLC. The relative percentages of hydrolysis were obtained by using the amount of compounds in blank control as reference.
Supplementary Fig. 11. Hydrolysis of 4a, (R)-4a, (S)-4a, 4g-i, and rac-GR24 by ShHTL7 at 30 °C for 30 min. The remaining amounts of compounds in recombinant ShHTL7 protein and buffer solution were determined by HPLC analysis. The relative percentages of hydrolysis were calculated by using the amount of compounds in the buffer as reference. The error bar indicates SD (n = 3 biologically independent experiments).
as §1

T1 sequence (A0A0M3PNA2 entry or part of it): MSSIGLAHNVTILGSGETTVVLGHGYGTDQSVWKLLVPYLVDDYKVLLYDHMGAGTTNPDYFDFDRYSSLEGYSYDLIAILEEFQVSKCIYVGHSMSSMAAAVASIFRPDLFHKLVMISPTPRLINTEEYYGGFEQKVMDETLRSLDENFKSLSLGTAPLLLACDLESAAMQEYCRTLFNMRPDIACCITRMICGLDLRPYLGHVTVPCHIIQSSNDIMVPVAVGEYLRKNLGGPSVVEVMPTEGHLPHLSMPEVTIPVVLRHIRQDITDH

Compound	Kd (ShHTL7 [1]) [µM]	IC50 (ShHTL7 [2]; read-out: IC50 (Supplementary Table 1)) [µM]	inhibition manner (Lineweaver-Burk plot) (ShHTL7 [3])	germination of P. aegyptiaca seeds, source data average (P. aegyptiaca seeds) [%]	P. aegyptiaca germination(%) (P. aegyptiaca seeds)	IC50 (ShHTL7 [2]; IC50 (Supplementary Table 1)) [µM]	hydrolysis by ShHTL7 (ShHTL7 [4])
O=C(c1ccc(F)cc1)N1CCN(CC2CC=CCC2)CC1 (stereo not shown) [compound 1, (4-(cyclohex-3-en-1-ylmethyl)piperazin-1-yl)(4-fluorophenyl)methanone]	13.3 ± 1.4	15.9 ± 1.47	in a competitive manner	40.0744	39.4		
Cc1ccc(OCC(=O)N2CCN(CC3CC4C=CC3C4)CC2)cc1 (stereo not shown) [2h]	0.96		in a competitive manner	25.888	27.4	22 ± 4.97	
O=C(COc1ccc(Cl)cc1)N1CCN(CC2CC=CCC2)CC1 (stereo not shown) [2g]	1.02 ± 0.11		in a competitive manner				could not be hydrolyzed by ShHTL7
